Broadly, the IC50 is the concentration at which inhibition is half-maximal.

Test [1] relates to H1975 (KRAS wild type human lung adenocarcinoma cell line). Put plainly: KRAS 3D-Cell Proliferation Assay, H1975 (Example 503). Type of test: cell-based. As to conditions: Homo sapiens, NCI-H1975, 168 h, H1975 3D culture, 7 days, CellTiter-Glo 3D; read-out: Prolif H1975 3D ATP IC50. The method, then: (§1) Example 503: KRAS 3D-Cell Proliferation Assays. Cellular potencies of compounds are assessed by evaluating inhibition of proliferation in 3D cultures of homozygous mutant KRAS G12D human pancreatic cell lines (AsPC-1 and HPAC) as compared to a KRAS wild type human lung adenocarcinoma cell line (PC-9 and/or H1975). Cells are seeded into 384-well black round-bottom, ultra-low attachment assay plates in 50 uL cell growth medium (RPMI-1640 with 10% fetal bovine serum and 2 mM L-glutamine). After overnight incubation at 37° C. and 5% CO2, compounds solubilized in DMSO are added as dilution series to the wells in a total volume of 150 nL (0.3% DMSO final). The cells are incubated for 7 days at 37° C. and 5% CO2. Cell proliferation is quantitated by addition of 40 uL/well of CellTiter-GloÒ 3D (Promega), and the well contents are mixed 20× at high speed using liquid handling automation workstation (Bravo with 384-well head) and centrifuged at 1500 rpm for 2 minutes to eliminate bubbles. This reagent in combination with mechanical disruption releases the cellular ATP to promote activity in a luciferase-based enzyme/substrate chemiluminescent detection system. After a 30-minute incubation under ambient conditions with shaking and an additional 10 minutes without shaking, the luminescence is read on a plate reader (e.g., EnVision [PerkinElmer]). The results are normalized to percent inhibition based on the following control samples: DMSO (0% inhibition) and 1 μM staurosporine (100% inhibition). The normalized luminescence results are plotted against compound concentration, and the data are fit to a 4-parameter Hill equation to determine the IC50 values.
A general note: ATP-based viability assays read luminescence as a measure of living cells.

The test system of test [2] is HPAC (homozygous mutant KRAS G12D human pancreatic cell line). Put plainly: KRAS 3D-Cell Proliferation Assay, HPAC (Example 503). Type of test: cell-based. As to conditions: Homo sapiens, HPAC, 168 h, HPAC 3D culture, 7 days, CellTiter-Glo 3D; read-out: Prolif HPAC 3D ATP IC50. The method, then: as §1

Molecules are shown by their SMILES.

As to `Cc1cc(N)c(F)c(-c2nc3c4c(nc(OC[C@@H]5CC[C@H]6COCCN65)nc4c2F)N2C[C@H]4CC[C@H](N4)[C@H]2[C@H](C)O3)c1C=C(F)F` [Compound 99, 4-(2,2-Difluorovinyl)-2-fluoro-3-((5S,5aS,6S,9R)-1-fluoro-12-(((6S,8aS)-hexahydro-1H-pyrrolo[2,1-c][1,4]oxazin-6-yl)methoxy)-5-methyl-5a,6,7,8,9,10-hexahydro-5H-4-oxa-3,10a,11,13,14-pentaaza-6,9-methanonaphtho[1,8-ab]heptalen-2-yl)-5-methylaniline], the IC50 in test [1] was 5060 nM; in test [2], 40 nM.

On to `Cc1cc(N)c(F)c(-c2nc3c4c(nc(OC[C@@H]5CC[C@H]6COCCN65)nc4c2F)N2C[C@H]4CC[C@H](N4)[C@H]2[C@H](C)O3)c1C(F)(F)C(F)(F)F` [Compound 100, 2-Fluoro-3-((5S,5aS,6S,9R)-1-fluoro-12-(((6S,8aS)-hexahydro-1H-pyrrolo[2,1-c][1,4]oxazin-6-yl)methoxy)-5-methyl-5a,6,7,8,9,10-hexahydro-5H-4-oxa-3,10a,11,13,14-pentaaza-6,9-methanonaphtho[1,8-ab]heptalen-2-yl)-5-methyl-4-(perfluoroethyl)aniline], for which the half-maximal inhibitory concentration (IC50) in test [1] worked out at 3970 nM; in test [2] it was 21.8 nM.

As to `Cc1cc(N)c(F)c(-c2nc3c4c(nc(OC[C@@H]5CC[C@H]6COCCN65)nc4c2F)N2C[C@H]4CC[C@H](N4)[C@H]2[C@H](C)O3)c1Cl` [Compound 101, 4-Chloro-2-fluoro-3-((5S,5aS,6S,9R)-1-fluoro-12-(((6S,8aS)-hexahydro-1H-pyrrolo[2,1-c][1,4]oxazin-6-yl)methoxy)-5-methyl-5a,6,7,8,9,10-hexahydro-5H-4-oxa-3,10a,11,13,14-pentaaza-6,9-methanonaphtho[1,8-ab]heptalen-2-yl)-5-methylaniline], the half-inhibitory concentration (IC50) worked out at 8490 nM in test [1] and 41.5 nM in test [2].

`Cc1cc(N)c(Cl)c(-c2nc3c4c(nc(OC[C@@H]5CC[C@H]6COCCN65)nc4c2F)N2C[C@H]4CC[C@H](N4)[C@H]2[C@H](C)O3)c1C(F)(F)F` [Compound 103, 2-Chloro-3-((5S,5aS,6S,9R)-1-fluoro-12-(((6S,8aS)-hexahydro-1H-pyrrolo[2,1-c][1,4]oxazin-6-yl)methoxy)-5-methyl-5a,6,7,8,9,10-hexahydro-5H-4-oxa-3,10a,11,13,14-pentaaza-6,9-methanonaphtho[1,8-ab]heptalen-2-yl)-5-methyl-4-(trifluoromethyl)aniline]: the results for the 50% inhibitory concentration (IC50) in test [1] and in test [2] were 3460 nM and 9.29 nM, respectively.

As to `C[C@@H]1Oc2nc(-c3[nH]c(=O)cc4ccccc34)c(F)c3nc(OC[C@@]45CCCN4C[C@H](F)C5)nc(c23)N2C[C@H]3CC[C@H](N3)[C@@H]12` [Compound 105, 1-((5S,5aS,6S,9R)-1-Fluoro-12-(((2R,7aS)-2-fluorotetrahydro-1H-pyrrolizin-7a(5H)-yl)methoxy)-5-methyl-5a,6,7,8,9,10-hexahydro-5H-4-oxa-3,10a,11,13,14-pentaaza-6,9-methanonaphtho[1,8-ab]heptalen-2-yl)isoquinolin-3(2H)-one], the figures for the IC50 in test [1] and in test [2] were 20000 nM and 2000 nM, respectively.

Consider `C[C@@H]1Oc2nc(-c3c(C#N)c(N)c(F)c(F)c3C(F)(F)F)c(F)c3nc(OC[C@@]45CCCN4C[C@H](F)C5)nc(c23)N2C[C@H]3CC[C@H](N3)[C@@H]12` [Compound 107, 2-Amino-3,4-difluoro-6-((5S,5aS,6S,9R)-1-fluoro-12-(((2R,7aS)-2-fluorotetrahydro-1H-pyrrolizin-7a(5H)-yl)methoxy)-5-methyl-5a,6,7,8,9,10-hexahydro-5H-4-oxa-3,10a,11,13,14-pentaaza-6,9-methanonaphtho[1,8-ab]heptalen-2-yl)-5-(trifluoromethyl)benzonitrile], for which the IC50 in test [1] was 4870 nM; in test [2] it was 43.5 nM.

Regarding `Cc1cc(N)c(F)c(-c2nc3c4c(nc(OC[C@@]56CCCN5C[C@H](F)C6)nc4c2F)N2C[C@H]4CC[C@H](N4)[C@H]2[C@H](C)O3)c1I` [Compound 108, 2-Fluoro-3-((5S,5aS,6S,9R)-1-fluoro-12-(((2R,7aS)-2-fluorotetrahydro-1H-pyrrolizin-7a(5H)-yl)methoxy)-5-methyl-5a,6,7,8,9,10-hexahydro-5H-4-oxa-3,10a,11,13,14-pentaaza-6,9-methanonaphtho[1,8-ab]heptalen-2-yl)-4-iodo-5-methylaniline], the figures for the concentration for half-maximal inhibition (IC50) in test [1] and in test [2] were 772 nM and 2.85 nM, respectively.

Turning to `C#Cc1c(F)ccc2cc(N)cc(-c3nc4c5c(nc(OC[C@]67CCN6CC(F)(F)C7)nc5c3F)N3C[C@H]5CC[C@H](N5)[C@H]3[C@H](C)O4)c12` [Compound 110, 4-((5S,5aS,6S,9R)-12-(((R)-3,3-Difluoro-1-azabicyclo[3.2.0]heptan-5-yl)methoxy)-1-fluoro-5-methyl-5a,6,7,8,9,10-hexahydro-5H-4-oxa-3,10a,11,13,14-pentaaza-6,9-methanonaphtho[1,8-ab]heptalen-2-yl)-5-ethynyl-6-fluoronaphthalen-2-amine], the IC50 was 587 nM in test [1] and 2.58 nM in test [2].

For the molecule `Cc1c(F)c(N)cc(-c2nc3c4c(nc(OC[C@@H]5CC[C@H]6COCCN65)nc4c2F)N2C[C@H]4CC[C@H](N4)[C@H]2[C@H](C)O3)c1Cl` [Compound 111, 4-Chloro-2-fluoro-5-((5S,5aS,6S,9R)-1-fluoro-12-(((6S,8aS)-hexahydro-1H-pyrrolo[2,1-c][1,4]oxazin-6-yl)methoxy)-5-methyl-5a,6,7,8,9,10-hexahydro-5H-4-oxa-3,10a,11,13,14-pentaaza-6,9-methanonaphtho[1,8-ab]heptalen-2-yl)-3-methylaniline], the values for the half-maximal inhibitory concentration (IC50) in test [1] and in test [2] were 1840 nM and 14.1 nM, respectively.

As to `Cc1c(F)c(N)cc(-c2nc3c4c(nc(OC[C@@H]5CC[C@H]6COCCN65)nc4c2F)N2C[C@H]4CC[C@H](N4)[C@H]2[C@H](C)O3)c1CC(F)(F)F` [Compound 113, 2-fluoro-5-((5S,5aS,6S,9R)-1-fluoro-12-(((6S,8aS)-hexahydro-1H-pyrrolo[2,1-c][1,4]oxazin-6-yl)methoxy)-5-methyl-5a,6,7,8,9,10-hexahydro-5H-4-oxa-3,10a,11,13,14-pentaaza-6,9-methanonaphtho[1,8-ab]heptalen-2-yl)-3-methyl-4-(2,2,2-trifluoroethyl)aniline], the IC50 in test [1] came out at 1170 nM; in test [2] it was 2.91 nM.

On to `C[C@@H]1Oc2nc(-c3cccc4ccc(N)nc34)c(F)c3nc(OC[C@@]45CCCN4C[C@H](F)C5)nc(c23)N2C[C@H]3CC[C@H](N3)[C@@H]12` [Compound 114, 8-((5S,5aS,6S,9R)-1-Fluoro-12-(((2R,7aS)-2-fluorotetrahydro-1H-pyrrolizin-7a(5H)-yl)methoxy)-5-methyl-5a,6,7,8,9,10-hexahydro-5H-4-oxa-3,10a,11,13,14-pentaaza-6,9-methanonaphtho[1,8-ab]heptalen-2-yl)quinolin-2-amine], for which the IC50 in test [1] is 20000 nM; in test [2], 2000 nM.

In the case of `C[C@@H]1Oc2nc(-c3cc(N)cc(C(F)(F)F)c3C(F)(F)F)c(F)c3nc(OC[C@@]45CCCN4C[C@H](F)C5)nc(c23)N2C[C@H]3CC[C@H](N3)[C@@H]12` [Compound 115, 3-((5S,5aS,6S,9R)-1-fluoro-12-(((2R,7aS)-2-fluorotetrahydro-1H-pyrrolizin-7a(5H)-yl)methoxy)-5-methyl-5a,6,7,8,9,10-hexahydro-5H-4-oxa-3,10a,11,13,14-pentaaza-6,9-methanonaphtho[1,8-ab]heptalen-2-yl)-4,5-bis(trifluoromethyl)aniline], the IC50 in test [1] was 2710 nM; in test [2] it was 15.7 nM.

The values above are taken from patent US12338256B2, “Aza-tetracyclic oxazepine compounds and uses thereof” (Genentech, Inc., priority 2022, dated 2025).
